# From patent US20120165223A1 (priority 2006, published 2012)
# System: crypt cells of the colon of HFA mice
# Conditions: DNA chip, colonic crypt cells, 200 mg/kg orally four days
# Method: The collected colon is opened and intestinal content is cleaned with a sterilized saline solution and put in a cryomold in the longitudinal direction to be embedded as an OCT compound and then it is maintained in a freezer at −80° C. The frozen tissue is cut to have the thickness of 8 μm using a cryotome, put on a glass slide (HistoGene LCM slide, Arcturus) and cleaned using a staing (HistoGene LCM frozen section staing kit, Arcturus) and then a hematoxylin stain is performed and then dehydrated. The stained colonic tissue slide of the dyed mice is put on a laser captured microdissector (PixCell II, Arcturus) and crypt cells are isolated from the colon by a laser.
# The amplified aRNA (24 μl) of 10 μg is mixed with random hexamer (5 mg/Ml) of 2 μl to be 24 μl which is heated for 10 minutes at 70° C. The first strand master mix liquid of 26 μl containing Cy3- or Cy5-dUTP (1 mM, respectively) is added to aRNA and reacted for two hours at 37° C. […] After the cDNA is deactivated for three minutes at 98° C., a control target of 25 μl with 2× hybridization buffer of 105 μl (Agilent In situ Hybridization kit) to be instilled on a mouse DNA microarray chip (TwinChip Mouse 7.4K cDNA array, Digital Genomics, Seoul, Korea) and hybridized for 17 hours at 60° C. […] Each fluorescence intensity is obtained by performing a global normalization and measuring the ratio of expressing Cy3- and Cy5- fluorescence with respect to one gene.
Compound,Ang gene expression in comparison with HFA (FIG. 4a),Casp14 gene expression in comparison with HFA (FIG. 3A),Eif2ak3 gene expression in comparison with HFA (FIG. 3A),I16 gene expression in comparison with HFA (FIG. 3A),Mpp1 gene expression in comparison with HFA (FIG. 4a),Mt1 gene expression in comparison with HFA (FIG. 4a),S1c26a1 gene expression in comparison with HFA (FIG. 4a),Saa3 gene expression in comparison with HFA (FIG. 4a),Spn2a gene expression in comparison with HFA (FIG. 3A),Tegt gene expression in comparison with HFA (FIG. 3A)
"O=C(O)c1cn(C2CC2)c2cc(N3CCNCC3)c(F)cc2c1=O [Cip, Ciprofloxacin]",nearly two or four times,increase the expression of the genes,increase the expression of the genes,increase the expression of the genes,prevent genes from expressing themselves more than twice,nearly two or four times,prevent genes from expressing themselves more than twice,prevent genes from expressing themselves more than twice,prevent genes from expressing themselves more than twice,prevent genes from expressing themselves more than twice
"CN(C)[C@@H]1C(=O)C(C(N)=O)=C(O)[C@@]2(O)C(=O)C3=C(O)c4c(O)cccc4[C@@](C)(O)[C@H]3C[C@@H]12 [TC, Tetracycline]",nearly two or four times,increase the expression of the genes,increase the expression of the genes,increase the expression of the genes,prevent genes from expressing themselves more than twice,nearly two or four times,prevent genes from expressing themselves more than twice,prevent genes from expressing themselves more than twice,prevent genes from expressing themselves more than twice,prevent genes from expressing themselves more than twice
